According to patent US9045488B2, “PAA nanoparticles for tumor treatment and imaging” (Photolitec, LLC, priority 2012, dated 2015):
“Also recorded” adds a separate entry of the source.

Assays:
[1] = tested on: COLO-26 tumor; assay: In vivo fluorescence imaging, Maestro GNIR-Flex, mice with induced COLO-26 tumor; parameters: species or system Balb/c mice; conditions: 4-48 hours post i.v. 0.47 mmoles/kg; excitation 575-605 nm, emission 645 nm long pass
Excerpt: The images are color enhanced by computer assignment of color depth relative to fluorescent intensity. Exposure was 100 ms (fluorescence 0 and 8 ms 9 white light). […] The images are color enhanced by computer assignment of color depth relative to fluorescent intensity. […] The images are color enhanced by computer assignment of color depth relative to fluorescent intensity. […] The images are color enhanced by computer assignment of color depth relative to fluorescent intensity.

[2] = tested on: Colon 26 cancer cells; assay: MTT assay, percent survival of Colon 26 cancer cells with/without light treatment; type: cell-based; conditions: Colon 26 cells, 24 h incubation, no light or light 0.25-2 Joules; relative to the unconjugated compound
Excerpt: (§1) FIG. 3 is a graph showing percent survival of Colon 26 cancer cells relative to concentration in the form of MTT Assay of compound PS815 vs. PS815 conjugated to PAA nanoparticle vs. PS815 both conjugated and post-loaded on PAA nanoparticle without light treatment.
as §1, with “4” for “3”, “nanoparticles. Light treatment was done at 0.25 Joules following 24 h incubation in Colon 26 cells.” for “nanoparticle without light treatment.”
as §1, with “5” for “3”, “nanoparticles. Light treatment was done at 0.5 Joules following 24 h incubation in Colon 26 cells.” for “nanoparticle without light treatment.”
as §1, with “6” for “3”, “nanoparticles. Light treatment was done at one Joule following 24 h incubation in Colon 26 cells. […]” for “nanoparticle without light treatment.”

Substance: 20-carboxyphenyl-2-[1-hexyloxyethyl]-2-devinyl pyropheophorbide-a methyl ester [PS812]
- fluorescent image clarity and definition / fluorescence imaging [1]: unexpectedly superior fluorescent imaging; also recorded: superiority of fluorescence imaging
- toxicity to the tumor cells (MTT assay, percent survival), effect of conjugation with nanoparticles [2]: unexpectedly increases toxicity to the cancer cells
